Tested on: HCV 1b_Huh-Luc/Neo-ET cell line persistently expressing a bicistronic genotype 1b replicon in Huh 7 cells
Experiment: HCV replicon assay, luciferase enzyme activity readout
Type: cell-based
Conditions: Hepatitis C virus, 72 h incubation, average EC50 range, read-out: Inhibition of HCV genotype 1b
Experimental: Biological activity of the compounds of the invention was determined using an HCV replicon assay. The HCV 1b_Huh-Luc/Neo-ET cell line persistently expressing a bicistronic genotype 1b replicon in Huh 7 cells was obtained from ReBLikon GMBH. This cell line was used to test compound inhibition using luciferase enzyme activity readout as a measurement of compound inhibition of replicon levels.
On Day 1 (the day after plating cells), each compound is added in triplicate to the cells. Plates are incubated for 72 h prior to determining luciferase levels. Enzyme activity was measured using a Bright-Glo Kit (cat. number E2620) manufactured by Promega Corporation. The following equation was used to generate a percent control value for each compound. % Control=(Compound Luciferase Level/Control Luciferase Level)*100
The EC50 value was determined using GraphPad Prism and the following equation: Y=Bottom asymptote+(Top asymptote−Bottom asymptote)/(1+10^((Log EC50−X)*HillSlope))
EC50 values of compounds are determined several times in the replicon assay to generate average EC50 values. […]

Row | SMILES | EC50 [nM]
1 | CC[C@H](C)[C@H](NC(=O)OC)C(=O)N1CCC[C@H]1c1ncc(-c2cc3c(cc2F)Cc2cc(-c4cnc([C@@H]5CCCN5C(=O)[C@@H](NC(=O)OC)C5CCOCC5)[nH]4)ccc2O3)[nH]1 [Compound 59] | < 1
2 | COC(=O)N[C@@H](C(=O)N1CCOC[C@H]1c1ncc(-c2ccc3c(c2)Oc2ccc(-c4cnc([C@@H]5COCCN5C(=O)[C@H](NC(=O)OC)c5ccccc5)[nH]4)cc2O3)[nH]1)c1ccccc1 [Compound 65] | < 1
3 | COC(=O)N[C@@H](C(=O)N1CCCC[C@H]1c1ncc(-c2ccc3c(c2)Oc2ccc(-c4cnc([C@@H]5CCCCN5C(=O)[C@H](NC(=O)OC)c5ccccc5)[nH]4)cc2O3)[nH]1)c1ccccc1 [Compound 48] | < 1
4 | C#CC[C@H](NC(=O)OC)C(=O)N1CCC[C@H]1c1ncc(-c2ccc3c(c2)Oc2ccc(-c4cnc([C@@H]5CCCN5C(=O)[C@H](CC#C)NC(=O)OC)[nH]4)cc2O3)[nH]1 [Compound 56] | < 1
5 | CC[C@H](C)[C@H](NC(=O)OC)C(=O)N1CCC[C@H]1c1ncc(-c2cc3c(cc2F)Cc2cc(-c4cnc([C@@H]5CCCN5C(=O)[C@H](COC)NC(=O)OC)[nH]4)ccc2O3)[nH]1 [Compound 60] | < 1
6 | CC[C@H](C)[C@H](NC(=O)OC)C(=O)N1CCC[C@H]1c1ncc(-c2ccc3c(c2)Cc2ccc(-c4cnc([C@@H]5CCCN5C(=O)[C@@H](NC(=O)OC)[C@@H](C)CC)[nH]4)cc2O3)[nH]1 [Compound 31] | < 1
7 | COC(=O)N[C@H](C(=O)N1CCC[C@H]1c1ncc(-c2ccc3oc4cc(-c5cnc([C@@H]6CCCN6C(=O)[C@@H](NC(=O)OC)C6CCOCC6)[nH]5)c(Cl)cc4c(=O)c3c2)[nH]1)C1CCOCC1 [Compound 52] | < 1
8 | COC(=O)N[C@H](C(=O)N1CCC[C@H]1c1ncc(-c2ccc3oc4cc(-c5cnc([C@@H]6CCCN6C(=O)[C@H](NC(=O)OC6CCOCC6)c6ccccc6)[nH]5)ccc4c(=O)c3c2)[nH]1)C(C)C [Compound 21] | < 1
9 | COC(=O)N[C@H](C(=O)N1CSC[C@H]1c1ncc(-c2ccc3c(c2)Oc2ccc(-c4cnc([C@@H]5CSCN5C(=O)[C@@H](NC(=O)OC)C(C)C)[nH]4)cc2O3)[nH]1)C(C)C [Compound 36] | < 1
10 | CC[C@H](C)[C@H](NC(=O)OC)C(=O)N1CCC[C@H]1c1ncc(-c2ccc3c(c2)Cc2cc(F)c(-c4cnc([C@@H]5CCCN5C(=O)[C@@H](NC(=O)OC)[C@@H](C)CC)[nH]4)cc2O3)[nH]1 [Compound 53] | < 1
11 | COC(=O)N[C@H](C(=O)N1CCC[C@H]1c1ncc(-c2ccc3c(c2)Oc2ccc(-c4cnc([C@@H]5CCCN5C(=O)[C@@H](NC(=O)OC)C(C)C)[nH]4)cc2C3(C)C)[nH]1)C(C)C [Compound 10] | < 1
12 | COC(=O)N[C@@H](C(=O)N1CSC[C@H]1c1ncc(-c2ccc3c(c2)Oc2ccc(-c4cnc([C@@H]5CSCN5C(=O)[C@H](NC(=O)OC)c5ccccc5)[nH]4)cc2O3)[nH]1)c1ccccc1 [Compound 37] | < 1
13 | COC(=O)N[C@H](C(=O)N1CCC[C@H]1c1ncc(-c2ccc3c(c2)Cc2ccc(-c4cnc([C@@H]5CCCN5C(=O)[C@@H](NC(=O)OC)C5CCCC5)[nH]4)cc2O3)[nH]1)C1CCCC1 [Compound 32] | < 1
14 | COC(=O)N[C@H](C(=O)N1CCC[C@H]1c1ncc(-c2ccc3c(c2)Cc2cc(Cl)c(-c4cnc([C@@H]5CCCN5C(=O)[C@@H](NC(=O)OC)[C@@H](C)OC)[nH]4)cc2O3)[nH]1)[C@@H](C)OC [Compound 62] | < 1
15 | CC[C@H](C)[C@H](NC(=O)OC)C(=O)N1CCC[C@H]1c1ncc(-c2cc3c(cc2F)Cc2cc(-c4cnc([C@@H]5CCCN5C(=O)[C@@H](NC(=O)OC)[C@@H](C)OC)[nH]4)ccc2O3)[nH]1 [Compound 54] | < 1
16 | COC(=O)N[C@@H](C)C(=O)N1CCC[C@H]1c1ncc(-c2ccc3oc4cc(-c5cnc([C@@H]6CCCN6C(=O)[C@@H](NC(=O)OC)C(C)C)[nH]5)ccc4c(=O)c3c2)[nH]1 [Compound 20] | < 1
17 | COC(=O)N[C@@H](C(=O)N1CCC[C@H]1c1ncc(-c2ccc3nc4cc(-c5cnc([C@@H]6CCCN6C(=O)[C@H](NC(=O)OC)c6ccccc6)[nH]5)ccc4nc3c2)[nH]1)c1ccccc1 [Compound 2] | < 1
18 | COC(=O)N[C@H](C(=O)N1CCC[C@H]1c1ncc(-c2ccc3c(=O)c4cc(-c5cnc([C@@H]6CCCN6C(=O)[C@H](NC(=O)OC6CCOCC6)c6ccccc6)[nH]5)ccc4oc3c2)[nH]1)C(C)C [Compound 19] | < 1
19 | COC(=O)N[C@H](C(=O)N1CCC[C@H]1c1ncc(-c2ccc3c(c2)Cc2cc(F)c(-c4cnc([C@@H]5CCCN5C(=O)[C@@H](NC(=O)OC)[C@@H](C)OC)[nH]4)cc2O3)[nH]1)[C@@H](C)OC [Compound 40] | < 1

Row | SMILES | EC50 [nM]
20 | COC(=O)N[C@@H](C(=O)N1CCC[C@H]1c1ncc(-c2ccc3c(c2)Cc2cc(-c4cnc([C@@H]5CCCN5C(=O)[C@H](NC(=O)OC)c5ccccc5)[nH]4)ccc2O3)[nH]1)c1ccccc1 [Compound 5] | < 1
21 | COC(=O)N[C@H](C(=O)N1CCC[C@H]1c1ncc(-c2ccc3oc4cc(-c5cnc([C@@H]6CCCN6C(=O)[C@@H](NC(=O)OC)C(C)C)[nH]5)c(Cl)cc4c(=O)c3c2)[nH]1)C(C)C [Compound 49] | < 1
22 | COC(=O)N[C@H](C(=O)N1CCC[C@H]1c1ncc(-c2ccc3c(c2)Oc2ccc(-c4cnc([C@@H]5CCCN5C(=O)[C@@H](NC(=O)OC)C(C)C)[nH]4)cc2C32CC2)[nH]1)C(C)C [Compound 26] | < 1
23 | COC(=O)N[C@H](C(=O)N1CCC[C@H]1c1ncc(-c2ccc3c(c2)CCc2cc(-c4cnc([C@@H]5CCCN5C(=O)[C@@H](NC(=O)OC)C(C)C)[nH]4)ccc2O3)[nH]1)C(C)C [Compound 7] | < 1
24 | COC(=O)N[C@H](C(=O)N1CCC[C@H]1c1ncc(-c2ccc3c(c2)Oc2ccc(-c4cnc([C@@H]5CCCN5C(=O)[C@@H](NC(=O)OC)C(C)C)[nH]4)cc2O3)[nH]1)C(C)C [Compound 3] | < 1
25 | CC[C@H](C)[C@H](NC(=O)OC)C(=O)N1CCC[C@H]1c1ncc(-c2ccc3oc4cc(-c5cnc([C@@H]6CCCN6C(=O)[C@@H](NC(=O)OC)[C@@H](C)CC)[nH]5)c(Cl)cc4c(=O)c3c2)[nH]1 [Compound 51] | < 1
26 | CC[C@H](C)[C@H](NC(=O)OC)C(=O)N1CCC[C@H]1c1ncc(-c2ccc3c(c2)Oc2ccc(-c4cnc([C@@H]5CCCN5C(=O)[C@@H](NC(=O)OC)[C@@H](C)CC)[nH]4)cc2O3)[nH]1 [Compound 46] | < 1
27 | COC(=O)N[C@H](C(=O)N1CCC[C@H]1c1ncc(-c2cc3c(cc2F)Cc2cc(-c4cnc([C@@H]5CCCN5C(=O)[C@@H](NC(=O)OC)[C@@H](C)OC)[nH]4)ccc2O3)[nH]1)C(C)C [Compound 29] | < 1
28 | COC[C@H](NC(=O)OC)C(=O)N1CCC[C@H]1c1ncc(-c2ccc3c(c2)Cc2cc(F)c(-c4cnc([C@@H]5CCCN5C(=O)[C@@H](NC(=O)OC)C(C)C)[nH]4)cc2O3)[nH]1 [Compound 45] | < 1
29 | COC(=O)N[C@H](C(=O)N1CCC[C@H]1c1ncc(-c2ccc3c(=O)c4cc(-c5cnc([C@@H]6CCCN6C(=O)[C@@H](NC(=O)OC)C6CCOCC6)[nH]5)ccc4oc3c2)[nH]1)C(C)C [Compound 16] | < 1
30 | COC(=O)N[C@H](C(=O)N1CCC[C@H]1c1ncc(-c2ccc3c(=O)c4cc(-c5cnc([C@@H]6CCCN6C(=O)[C@H](NC(=O)OC)c6ccccc6)[nH]5)ccc4oc3c2)[nH]1)C(C)C [Compound 15] | < 1
31 | COC(=O)N[C@H](C(=O)N1CCC[C@H]1c1ncc(-c2ccc3oc4cc(-c5cnc([C@@H]6CCCN6C(=O)[C@@H](NC(=O)OC)C6CCOCC6)[nH]5)c(F)cc4c(=O)c3c2)[nH]1)C1CCOCC1 [Compound 23] | < 1
32 | [2H]C([2H])([2H])C([2H])(C([2H])([2H])[2H])[C@]([2H])(NC(=O)OC)C(=O)N1CCC[C@H]1c1ncc(-c2ccc3c(c2)Oc2ccc(-c4cnc([C@@H]5CCCN5C(=O)[C@@]([2H])(NC(=O)OC)C([2H])(C([2H])([2H])[2H])C([2H])([2H])[2H])[nH]4)cc2O3)[nH]1 [Compound 57] | < 1
33 | COC[C@H](NC(=O)OC)C(=O)N1CCC[C@H]1c1ncc(-c2ccc3c(c2)Cc2cc(F)c(-c4cnc([C@@H]5CCCN5C(=O)[C@@H](NC(=O)OC)[C@@H](C)OC)[nH]4)cc2O3)[nH]1 [Compound 43] | < 1
34 | COC(=O)N[C@H](C(=O)N1CCC[C@H]1c1ncc(-c2ccc3c(c2)c(=O)c2ccc(-c4cnc([C@@H]5CCCN5C(=O)[C@@H](NC(=O)OC)C(C)C)[nH]4)cc2n3C)[nH]1)C(C)C [Compound 11] | < 1
35 | COC(=O)N[C@H](C(=O)N1CCC[C@H]1c1ncc(-c2ccc3c(c2)CCc2ccc(-c4cnc([C@@H]5CCCN5C(=O)[C@@H](NC(=O)OC)C(C)C)[nH]4)cc2O3)[nH]1)C(C)C [Compound 12] | < 1
36 | COC(=O)N[C@@H](C(=O)N1CCC[C@H]1c1ncc(-c2ccc3oc4cc(-c5cnc([C@@H]6CCCN6C(=O)[C@H](NC(=O)OC)c6ccccc6)[nH]5)c(F)cc4c(=O)c3c2)[nH]1)c1ccccc1 [Compound 24] | < 1
37 | COC(=O)N[C@H](C(=O)N1CCC[C@H]1c1ncc(-c2ccc3c(=O)c4cc(-c5cnc([C@@H]6CCCN6C(=O)[C@@H](NC(=O)OC)C(C)C)[nH]5)ccc4oc3c2)[nH]1)C(C)C [Compound 8] | < 1
38 | COC(=O)N[C@H](C(=O)N1CCC[C@H]1c1ncc(-c2ccc3oc4cc(-c5cnc([C@@H]6CCCN6C(=O)[C@@H](NC(=O)OC)C(C)C)[nH]5)c(F)cc4c(=O)c3c2)[nH]1)C(C)C [Compound 22] | < 1

Source: patent publication US9150554B2, “Fused ring inhibitors of hepatitis C” (Presidio Pharmaceuticals, Inc., priority 2009, dated 2015)
